Laboratory results taken from article PMC10494966 (RSC Advances, 2023).

target: T1, Pancreatic lipase (Sus scrofa, UniProt P00591); assay: spectrophotometric p-nitrophenyl palmitate hydrolysis, single concentration […]; type: biochemical
T1 sequence (P00591 1-450): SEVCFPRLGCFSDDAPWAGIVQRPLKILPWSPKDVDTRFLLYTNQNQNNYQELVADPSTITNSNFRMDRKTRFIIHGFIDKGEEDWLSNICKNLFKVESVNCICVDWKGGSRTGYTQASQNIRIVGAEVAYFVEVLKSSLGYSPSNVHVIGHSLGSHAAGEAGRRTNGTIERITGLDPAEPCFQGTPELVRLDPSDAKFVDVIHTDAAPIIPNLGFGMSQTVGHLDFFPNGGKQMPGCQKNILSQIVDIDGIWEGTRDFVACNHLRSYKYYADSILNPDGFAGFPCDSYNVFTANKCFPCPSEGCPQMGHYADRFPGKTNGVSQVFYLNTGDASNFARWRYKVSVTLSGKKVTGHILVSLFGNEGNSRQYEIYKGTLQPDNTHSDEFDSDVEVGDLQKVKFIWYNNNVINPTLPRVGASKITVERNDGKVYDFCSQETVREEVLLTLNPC

In order of falling inhibition at 250 µM:
1. COc1cc2cc(Oc3ccc4ccc(=O)oc4c3)c(=O)oc2cc1O [compound 1, daphnoretin]  72%
2. C[C@@H]1O[C@@H](OC[C@H]2O[C@@H](Oc3c(-c4ccc(O)c(O)c4)oc4cc(O)cc(O)c4c3=O)[C@H](O[C@@H]3O[C@@H](C)[C@H](O)[C@@H](O)[C@H]3O)[C@@H](O)[C@H]2O)[C@H](O)[C@H](O)[C@H]1O [compound 7, quercetin 3-O-α-L-rhamnopyranosyl-(1 → 2)-[α-L-rhamnopyranosyl-(1 → 6)]-β-D-galactopyranoside]  68%
3. O=C1c2c(O)cc(O)cc2O[C@H](c2ccc(O)cc2)[C@@H]1[C@@H]1C(=O)c2c(O)cc(O)cc2O[C@@H]1c1ccc(O)cc1 [compound 3, neochamaejasmin A]  61.8%
4. COC(=O)c1c(O)cc(O)c2c1OC(c1ccc(O)cc1)C(O)C2 (stereo not shown) [compound 2, 5,7,4′-trihydroxy-8-methoxycarbonyl flavanol]  52%
